Measured values reported in paper PMC10150365 (Journal of Medicinal Chemistry, 2023).

What was measured:
Assay in all cases: Cerep SafetyScreen-87
Settings in all cases: n=2
[1] = target: T1, Cholecystokinin CCK1 (CCKA) (Homo sapiens, UniProt P32238); format: binding
T1 construct: purchased Eurofins Cerep/Panlabs SafetyScreen-87

[2] = target: T2, Glutamate, Metabotropic, mGlu5 (Homo sapiens, UniProt P41594); format: binding
T2 construct: purchased Eurofins Cerep/Panlabs SafetyScreen-87

[3] = target: T3, Dopamine D2S (Homo sapiens, UniProt P14416); format: binding
T3 construct: purchased Eurofins Cerep/Panlabs SafetyScreen-87

[4] = target: T4, Serotonin (5-Hydroxytryptamine) 5-HT1A (Homo sapiens, UniProt P08908); format: binding
T4 construct: purchased Eurofins Cerep/Panlabs SafetyScreen-87

[5] = target: T5, Cannabinoid CB2 (Homo sapiens, UniProt P34972); format: binding
T5 construct: purchased Eurofins Cerep/Panlabs SafetyScreen-87

[6] = target: T6, Dopamine D1 (Homo sapiens, UniProt P21728); format: binding
T6 construct: purchased Eurofins Cerep/Panlabs SafetyScreen-87

[7] = target: T7, Adrenergic β1 (Homo sapiens, UniProt P08588); format: binding
T7 construct: purchased Eurofins Cerep/Panlabs SafetyScreen-87

[8] = target: T8, Cholinesterase, Acetyl, ACES (Homo sapiens, UniProt P22303); format: biochemical
T8 construct: purchased Eurofins Cerep/Panlabs SafetyScreen-87

[9] = target: T9, Platelet Activating Factor (PAF) (Homo sapiens, UniProt P25105); format: binding
T9 construct: purchased Eurofins Cerep/Panlabs SafetyScreen-87

[10] = target: T10, Opiate δ1 (OP1, DOP) (Homo sapiens, UniProt P41143); format: binding
T10 construct: purchased Eurofins Cerep/Panlabs SafetyScreen-87

[11] = target: T11, Muscarinic M3 (Homo sapiens, UniProt P20309); format: binding
T11 construct: purchased Eurofins Cerep/Panlabs SafetyScreen-87

[12] = target: T12, Dopamine D2L (Homo sapiens, UniProt P14416); format: binding
T12 construct: purchased Eurofins Cerep/Panlabs SafetyScreen-87

[13] = target: T13, Cyclooxigenase COX-1 (Homo sapiens, UniProt P23219); format: biochemical
T13 construct: purchased Eurofins Cerep/Panlabs SafetyScreen-87

[14] = target: T14, Progesterone PR-B (Homo sapiens, UniProt P06401); format: binding
T14 construct: purchased Eurofins Cerep/Panlabs SafetyScreen-87

[15] = target: Glutamate, NMDA, Glycine (Rattus norvegicus, UniProt P35439); format: binding

T11 sequence (P20309 whole entry): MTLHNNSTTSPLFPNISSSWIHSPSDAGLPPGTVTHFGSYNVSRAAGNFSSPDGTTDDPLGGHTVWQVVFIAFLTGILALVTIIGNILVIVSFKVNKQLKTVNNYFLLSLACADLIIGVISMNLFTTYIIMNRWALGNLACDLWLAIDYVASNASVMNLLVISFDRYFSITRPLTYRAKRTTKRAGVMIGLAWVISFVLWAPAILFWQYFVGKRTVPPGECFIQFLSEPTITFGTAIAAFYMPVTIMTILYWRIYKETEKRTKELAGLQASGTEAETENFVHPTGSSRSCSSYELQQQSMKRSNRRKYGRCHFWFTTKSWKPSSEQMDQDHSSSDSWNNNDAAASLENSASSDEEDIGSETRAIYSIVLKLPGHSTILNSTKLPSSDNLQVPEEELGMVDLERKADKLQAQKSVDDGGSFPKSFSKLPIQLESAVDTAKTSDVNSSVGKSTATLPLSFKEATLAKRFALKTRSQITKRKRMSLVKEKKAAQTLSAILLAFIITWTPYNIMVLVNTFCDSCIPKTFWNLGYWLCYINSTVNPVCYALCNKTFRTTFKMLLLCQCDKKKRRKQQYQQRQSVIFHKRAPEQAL
T7 sequence (P08588 whole entry): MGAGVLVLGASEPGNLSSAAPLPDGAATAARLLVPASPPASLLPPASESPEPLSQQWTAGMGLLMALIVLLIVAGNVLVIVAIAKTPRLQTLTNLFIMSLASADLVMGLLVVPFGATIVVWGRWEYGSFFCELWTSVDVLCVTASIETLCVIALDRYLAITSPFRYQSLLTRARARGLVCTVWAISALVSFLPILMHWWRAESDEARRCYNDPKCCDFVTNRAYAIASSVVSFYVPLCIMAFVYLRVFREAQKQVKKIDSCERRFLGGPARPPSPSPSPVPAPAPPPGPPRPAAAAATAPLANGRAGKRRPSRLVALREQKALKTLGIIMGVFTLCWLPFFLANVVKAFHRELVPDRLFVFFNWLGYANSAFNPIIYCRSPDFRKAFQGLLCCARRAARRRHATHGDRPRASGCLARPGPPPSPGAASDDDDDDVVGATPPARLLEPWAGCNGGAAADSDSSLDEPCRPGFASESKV
T12 sequence (P14416 whole entry): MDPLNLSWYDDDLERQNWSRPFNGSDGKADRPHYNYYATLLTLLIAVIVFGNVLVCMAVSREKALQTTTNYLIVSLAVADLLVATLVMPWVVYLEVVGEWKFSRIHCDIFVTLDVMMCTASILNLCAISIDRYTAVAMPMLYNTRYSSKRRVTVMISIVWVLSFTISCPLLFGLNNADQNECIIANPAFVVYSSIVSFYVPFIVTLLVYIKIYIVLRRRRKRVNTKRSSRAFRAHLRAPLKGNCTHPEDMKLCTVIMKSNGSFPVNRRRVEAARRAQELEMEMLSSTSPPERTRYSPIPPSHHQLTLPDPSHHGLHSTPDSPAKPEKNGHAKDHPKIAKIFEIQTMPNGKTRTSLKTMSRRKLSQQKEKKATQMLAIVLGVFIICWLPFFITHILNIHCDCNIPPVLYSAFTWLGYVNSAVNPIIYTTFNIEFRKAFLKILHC
T10 sequence (P41143 whole entry): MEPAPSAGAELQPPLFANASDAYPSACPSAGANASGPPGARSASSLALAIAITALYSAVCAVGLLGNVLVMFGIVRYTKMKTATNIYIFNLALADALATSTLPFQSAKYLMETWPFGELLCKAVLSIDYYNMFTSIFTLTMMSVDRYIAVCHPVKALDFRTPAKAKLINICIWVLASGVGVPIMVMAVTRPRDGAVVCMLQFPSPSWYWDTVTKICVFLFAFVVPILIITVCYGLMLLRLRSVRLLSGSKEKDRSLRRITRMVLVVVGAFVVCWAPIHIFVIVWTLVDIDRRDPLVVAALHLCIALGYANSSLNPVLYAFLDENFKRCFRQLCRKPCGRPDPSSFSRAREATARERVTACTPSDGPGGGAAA
T5 sequence (P34972 whole entry, looked up): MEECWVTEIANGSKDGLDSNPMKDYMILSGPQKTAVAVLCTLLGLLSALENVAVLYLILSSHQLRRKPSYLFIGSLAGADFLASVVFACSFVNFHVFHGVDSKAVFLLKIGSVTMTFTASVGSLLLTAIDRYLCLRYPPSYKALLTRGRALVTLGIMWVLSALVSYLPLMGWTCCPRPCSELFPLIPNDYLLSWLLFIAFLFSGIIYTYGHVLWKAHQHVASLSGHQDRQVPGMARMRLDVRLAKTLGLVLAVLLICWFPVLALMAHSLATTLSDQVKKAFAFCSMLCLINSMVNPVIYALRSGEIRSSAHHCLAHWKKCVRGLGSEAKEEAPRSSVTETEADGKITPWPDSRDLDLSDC
T3 sequence (P14416 1-414 isoform P14416-2): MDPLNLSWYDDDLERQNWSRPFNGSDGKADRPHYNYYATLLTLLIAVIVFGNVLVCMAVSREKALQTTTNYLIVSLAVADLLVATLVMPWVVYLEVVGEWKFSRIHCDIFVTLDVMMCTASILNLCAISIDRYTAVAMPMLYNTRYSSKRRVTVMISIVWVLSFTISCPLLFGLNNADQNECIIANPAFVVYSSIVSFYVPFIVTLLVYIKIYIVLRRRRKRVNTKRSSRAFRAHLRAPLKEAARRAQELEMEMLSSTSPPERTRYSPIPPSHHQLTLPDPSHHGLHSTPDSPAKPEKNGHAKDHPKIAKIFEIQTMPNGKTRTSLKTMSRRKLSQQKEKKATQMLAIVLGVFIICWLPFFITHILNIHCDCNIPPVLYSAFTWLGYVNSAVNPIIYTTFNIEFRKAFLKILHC
T8 sequence (P22303 32-614): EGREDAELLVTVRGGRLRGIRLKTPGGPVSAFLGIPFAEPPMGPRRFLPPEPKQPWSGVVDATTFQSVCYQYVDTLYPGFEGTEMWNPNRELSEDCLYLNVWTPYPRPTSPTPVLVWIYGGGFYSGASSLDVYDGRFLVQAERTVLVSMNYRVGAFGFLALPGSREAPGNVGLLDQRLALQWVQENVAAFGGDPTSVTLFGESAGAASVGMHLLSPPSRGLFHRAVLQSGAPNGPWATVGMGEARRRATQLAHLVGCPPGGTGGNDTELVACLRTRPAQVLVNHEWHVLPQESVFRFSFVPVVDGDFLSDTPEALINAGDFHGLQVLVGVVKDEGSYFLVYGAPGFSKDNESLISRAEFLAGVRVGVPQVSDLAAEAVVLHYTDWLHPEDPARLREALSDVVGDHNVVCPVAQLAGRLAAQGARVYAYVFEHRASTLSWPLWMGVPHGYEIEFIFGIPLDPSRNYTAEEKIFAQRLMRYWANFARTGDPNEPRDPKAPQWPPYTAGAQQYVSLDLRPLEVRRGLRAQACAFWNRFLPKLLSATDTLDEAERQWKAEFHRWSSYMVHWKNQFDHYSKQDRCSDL
T4 sequence (P08908 whole entry): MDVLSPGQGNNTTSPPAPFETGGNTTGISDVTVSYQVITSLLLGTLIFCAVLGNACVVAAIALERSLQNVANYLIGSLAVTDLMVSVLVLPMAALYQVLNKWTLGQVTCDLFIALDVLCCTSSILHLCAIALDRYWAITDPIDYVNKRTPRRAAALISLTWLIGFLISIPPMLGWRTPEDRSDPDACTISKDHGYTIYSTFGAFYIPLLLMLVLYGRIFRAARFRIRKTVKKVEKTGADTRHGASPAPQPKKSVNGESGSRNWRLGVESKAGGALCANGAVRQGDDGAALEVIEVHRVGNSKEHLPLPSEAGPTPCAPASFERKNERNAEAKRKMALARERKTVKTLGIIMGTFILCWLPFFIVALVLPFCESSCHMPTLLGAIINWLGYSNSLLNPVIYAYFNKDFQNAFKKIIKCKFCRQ
T14 sequence (P06401 whole entry): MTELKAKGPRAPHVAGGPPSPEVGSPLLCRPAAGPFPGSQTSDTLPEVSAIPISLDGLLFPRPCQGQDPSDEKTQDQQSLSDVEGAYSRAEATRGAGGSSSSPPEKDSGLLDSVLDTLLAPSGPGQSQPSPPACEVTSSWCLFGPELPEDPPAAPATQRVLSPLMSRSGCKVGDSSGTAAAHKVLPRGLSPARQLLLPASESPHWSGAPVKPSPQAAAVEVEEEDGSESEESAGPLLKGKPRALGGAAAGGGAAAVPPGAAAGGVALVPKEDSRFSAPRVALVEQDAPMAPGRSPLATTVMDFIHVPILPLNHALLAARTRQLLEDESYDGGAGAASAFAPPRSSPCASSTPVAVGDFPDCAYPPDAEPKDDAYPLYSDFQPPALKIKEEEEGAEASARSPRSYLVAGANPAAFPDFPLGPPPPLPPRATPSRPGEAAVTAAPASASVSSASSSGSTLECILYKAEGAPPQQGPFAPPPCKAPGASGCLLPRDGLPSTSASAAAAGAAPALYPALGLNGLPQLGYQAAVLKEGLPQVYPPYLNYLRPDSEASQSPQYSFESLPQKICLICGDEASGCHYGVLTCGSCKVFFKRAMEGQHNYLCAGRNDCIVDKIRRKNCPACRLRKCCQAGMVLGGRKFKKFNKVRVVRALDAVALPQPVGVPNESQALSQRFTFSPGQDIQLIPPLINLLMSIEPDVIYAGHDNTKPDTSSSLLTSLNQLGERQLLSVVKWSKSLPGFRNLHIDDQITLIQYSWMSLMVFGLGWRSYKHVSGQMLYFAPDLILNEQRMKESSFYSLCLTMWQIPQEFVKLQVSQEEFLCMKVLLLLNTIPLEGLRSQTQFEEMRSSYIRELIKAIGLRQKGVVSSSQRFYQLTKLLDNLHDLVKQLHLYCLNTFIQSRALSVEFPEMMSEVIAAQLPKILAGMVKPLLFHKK

With CCN1CCN(Cc2ccc3cc(C(=O)Nc4cc(NC(=O)c5ccc6c(c5)OCCO6)ccc4F)ccc3n2)CC1 [Compound 22, N-(5-(2,3-Dihydrobenzo[b][1,4]dioxine-6-carboxamido)-2-fluorophenyl)-2-((4-ethylpiperazin-1-yl)methyl)quinoline-6-carboxamide] the inhibition at 10 µM [1] was 9%, the inhibition at 10 µM [2] was -2% and the inhibition at 10 µM [3] was 5%. It also gave an inhibition at 10 µM [4] of 4%, an inhibition at 10 µM [5] of 79% and an inhibition at 10 µM [6] of 41%. It also gave an inhibition at 10 µM [7] of 4%, an inhibition at 10 µM [8] of 2% and an inhibition at 10 µM [9] of […]. The inhibition at 10 µM [10] was 9%, the inhibition at 10 µM [11] was 30% and the inhibition at 10 µM [12] was 20%. It also gave an inhibition at 10 µM [13] of -24%, an inhibition at 10 µM [14] of 5% and an inhibition at 10 µM [15] of -24%.
